This experiment concerns the target human PCSK9 (Homo sapiens, UniProt Q8NBP7). Description: PCSK9 ligand binding TR-FRET assay (interference with binding of human PCSK9 to human LDLR). The settings on record: for Max % inhibition: PCSK9 FRET assay, efficacy (Amax), 100% = 1 uM unlabeled human PCSK9, 0% = DMSO; for IC50: TR-FRET, human PCSK9 Alexa Fluor 647 / human LDLR extracellular domain-Europium Kryptate, read-out: PCSK9 FRET Assay IC50. In short, it runs like this: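 Threefold compound dilutions were pre-incubated 30 min with PCSK9, after which 4 nM Europium Kryptate-tagged human LDLR ectodomain was added for a further 2 h.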
(In general: In TR-FRET formats the signal depends on donor and acceptor labels being close together.)

Our source for the Max % inhibition and IC50 values is patent US20230089867A1, “CYCLIC PENTAMER COMPOUNDS AS PROPROTEIN CONVERTASE SUBTILISIN/KEXIN TYPE 9 (PCSK9) INHIBITORS FOR THE TREATMENT OF METABOLIC DISORDER” (Novartis AG, priority 2018, published 2023).

What is called IC50 is the concentration needed to halve the response being measured.

Chain of human PCSK9 (Q8NBP7 153-692): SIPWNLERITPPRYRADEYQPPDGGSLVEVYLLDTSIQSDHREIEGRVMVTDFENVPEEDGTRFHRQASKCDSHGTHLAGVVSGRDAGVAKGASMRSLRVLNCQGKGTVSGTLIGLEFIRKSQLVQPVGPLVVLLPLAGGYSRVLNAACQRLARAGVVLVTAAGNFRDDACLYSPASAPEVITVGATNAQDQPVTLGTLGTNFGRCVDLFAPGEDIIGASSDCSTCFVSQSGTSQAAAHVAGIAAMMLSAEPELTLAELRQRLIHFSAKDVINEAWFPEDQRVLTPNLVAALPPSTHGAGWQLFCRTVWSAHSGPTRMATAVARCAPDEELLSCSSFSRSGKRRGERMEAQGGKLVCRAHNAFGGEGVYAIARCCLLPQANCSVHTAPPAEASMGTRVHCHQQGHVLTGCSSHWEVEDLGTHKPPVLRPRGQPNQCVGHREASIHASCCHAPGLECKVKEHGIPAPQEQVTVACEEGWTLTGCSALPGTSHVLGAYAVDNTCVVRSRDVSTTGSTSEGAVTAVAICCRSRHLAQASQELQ
Chain of human PCSK9 (Q8NBP7 31-152 partner limits assumed): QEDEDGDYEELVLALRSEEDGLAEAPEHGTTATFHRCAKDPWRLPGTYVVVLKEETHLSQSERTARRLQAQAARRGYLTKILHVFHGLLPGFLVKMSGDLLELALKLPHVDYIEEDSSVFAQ

As for `COC[C@@H]1NC(=O)[C@H](CC(F)(F)F)N(Cc2ccc(Cl)cc2Oc2ccc(-c3cnc(CN(C)C)n3C)cc2)C(=O)C[C@@H](Cc2ccccc2)C(=O)N(C)[C@@H](C)CNC(=O)C[C@H](Cc2ccc(Cl)cc2)N(C)C1=O` [Compound 37, (2S,5S,8S,13S,16R)-16-benzyl-1-(4-chloro-2-(4-(2-((dimethylamino)methyl)-1-methyl-1H-imidazol-5-yl)phenoxy)benzyl)-8-(4-chlorobenzyl)-5-(methoxymethyl)-7,13,14-trimethyl-2-(2,2,2-trifluoroethyl)-1,4,7,11,14-pentaazacyclooctadecane-3,6,10,15,18-pentaone], the Max % inhibition worked out at 100.65% and the half-inhibitory concentration (IC50) was 2.3 nM.
On the same counts, the results for `COC[C@@H]1NC(=O)[C@H](C)N(Cc2ccc(Cl)cc2Oc2ccc(-c3cnc(CN(C)C)n3C)cc2)C(=O)C[C@@H](Cc2cccc(C(F)F)c2)C(=O)N(C)[C@@H](C)CNC(=O)C[C@H](Cc2ccc(Cl)cc2)N(C)C1=O` [Compound 56, (2S,5S,8S,13S,16R)-1-(4-chloro-2-(4-(2-((dimethylamino)methyl)-1-methyl-1H-imidazol-5-yl)phenoxy)benzyl)-8-(4-chlorobenzyl)-16-(3-(difluoromethyl)benzyl)-5-(methoxymethyl)-2,7,13,14-tetramethyl-1,4,7,11,14-pentaazacyclooctadecane-3,6,10,15,18-pentaone] are 101.80% and 2.6 nM.
As to `COC[C@@H]1NC(=O)[C@H](CCCN(C)C)N(Cc2ccc(Cl)cc2Oc2ccc(-c3cnc(CN4CCCC4)n3C)cc2)C(=O)C[C@@H](Cc2ccccc2)C(=O)N(C)[C@H]2CCCC[C@@H]2NC(=O)C[C@H](Cc2ccc(Cl)cc2)N(C)C1=O` [Compound 285, (4S,7S,10S,14R,16aS,20aS)-14-benzyl-11-(4-chloro-2-(4-(1-methyl-2-(pyrrolidin-1-ylmethyl)-1H-imidazol-5-yl)phenoxy)benzyl)-4-(4-chlorobenzyl)-10-(3-(dimethylamino)propyl)-7-(methoxymethyl)-5,16-dimethylhexadecahydrobenzo[l][1,4,7,11,14]pentaazacyclooctadecine-2,6,9,12,15(3H)-pentaone], the Max % inhibition came out at 90.24% and the IC50 was found to be 2.1 nM.
With `COC[C@@H]1NC(=O)[C@H](C)N(Cc2ccc(Cl)cc2Oc2ccc(-c3cnc(CN(C)C)n3C)cc2)C(=O)CCC(=O)N(C)[C@H]2CCCC[C@@H]2NC(=O)C[C@H](Cc2ccc(Cl)cc2)N(C)C1=O` [Compound 202, (4S,7S,10S,16aS,20aS)-11-(4-chloro-2-(4-(2-((dimethylamino)methyl)-1-methyl-1H-imidazol-5-yl)phenoxy)benzyl)-4-(4-chlorobenzyl)-7-(methoxymethyl)-5,10,16-trimethylhexadecahydrobenzo[l][1,4,7,11,14]pentaazacyclooctadecine-2,6,9,12,15(3H)-pentaone], the Max % inhibition was found to be 95.27% and the IC50 stood at 2.9 nM.
For `CCC(CC)[C@@H]1CC(=O)N(Cc2ccc(Cl)cc2Oc2ccc(-c3cnc(CN(C)C)n3C)cc2)[C@@H](C)C(=O)N[C@@H](COC)C(=O)N(C)[C@@H](Cc2ccc(Cl)cc2)CC(=O)NC[C@H](C)N(C)C1=O` [Compound 40, (2S,5S,8S,13S,16S)-1-(4-chloro-2-(4-(2-((dimethylamino)methyl)-1-methyl-1H-imidazol-5-yl)phenoxy)benzyl)-8-(4-chlorobenzyl)-5-(methoxymethyl)-2,7,13,14-tetramethyl-16-(pentan-3-yl)-1,4,7,11,14-pentaazacyclooctadecane-3,6,10,15,18-pentaone], in that order: 104.99% and 99.6 nM.
For `[2H]C([2H])([2H])N(Cc1ncc(-c2ccc(Oc3cc(Cl)ccc3CN3C(=O)C[C@@H](Cc4ccccc4)C(=O)N(C)[C@@H](C)CNC(=O)C[C@H](Cc4ccc(Cl)cc4)N(C)C(=O)[C@H](COC)NC(=O)[C@@H]3CC)cc2)n1C)C([2H])([2H])[2H]` [Compound 49, (2S,5S,8S,13S,16R)-16-benzyl-1-(2-(4-(2-((bis(methyl-d3)amino)methyl)-1-methyl-1H-imidazol-5-yl)phenoxy)-4-chlorobenzyl)-8-(4-chlorobenzyl)-2-ethyl-5-(methoxymethyl)-7,13,14-trimethyl-1,4,7,11,14-pentaazacyclooctadecane-3,6,10,15,18-pentaone], in that order: 99.12% and 1.7 nM.
On the same counts, the results for `COC[C@@H]1NC(=O)[C@H](C)N(Cc2ccc(Cl)cc2Oc2ccc(-c3cnc(CN(C)C)n3C)cc2)C(=O)C[C@@H](C2CC2)C(=O)N(C)[C@@H](C)CNC(=O)C[C@H](Cc2ccc(Cl)cc2)N(C)C1=O` [Compound 215, (2S,5S,8S,13S)-1-(4-chloro-2-(4-(2-((dimethylamino)methyl)-1-methyl-1H-imidazol-5-yl)phenoxy)benzyl)-8-(4-chlorobenzyl)-16-cyclopropyl-5-(methoxymethyl)-2,7,13,14-tetramethyl-1,4,7,11,14-pentaazacyclooctadecane-3,6,10,15,18-pentaone] are 95.08% and 11 nM.
For `COC[C@@H]1NC(=O)[C@H](C)N(Cc2ccc(Cl)cc2Oc2ccc(-c3cnc(CN(C)C)n3C)cc2)C(=O)C[C@@H](Cc2ccc(F)c(F)c2F)C(=O)N(C)[C@@H](C)[C@H](C)NC(=O)C[C@H](Cc2ccc(Cl)cc2)N(C)C1=O` [Compound 293, (2S,5S,8S,12S,13S,16R)-1-(4-chloro-2-(4-(2-((dimethylamino)methyl)-1-methyl-1H-imidazol-5-yl)phenoxy)benzyl)-8-(4-chlorobenzyl)-5-(methoxymethyl)-2,7,12,13,14-pentamethyl-16-(2,3,4-trifluorobenzyl)-1,4,7,11,14-pentaazacyclooctadecane-3,6,10,15,18-pentaone], the Max % inhibition is given as 103.68% and the IC50 came to 0.7 nM.
For `COC[C@@H]1NC(=O)[C@H](CCCN2CCCC2=O)N(Cc2ccc(Cl)cc2Oc2ccc(-c3cnc(CN(C)C)n3C)cc2)C(=O)C[C@@H](Cc2ccccc2)C(=O)N(C)[C@H]2CCCC[C@@H]2NC(=O)C[C@H](Cc2ccc(Cl)cc2)N(C)C1=O` [Compound 296, (4S,7S,10S,14R,16aS,20aS)-14-benzyl-11-(4-chloro-2-(4-(2-((dimethylamino)-methyl)-1-methyl-1H-imidazol-5-yl)phenoxy)benzyl)-4-(4-chlorobenzyl)-7-(methoxymethyl)-5,16-dimethyl-10-(3-(2-oxopyrrolidin-1-yl)propyl)hexadecahydrobenzo[l][1,4,7,11,14]penta-azacyclooctadecine-2,6,9,12,15(3H)-pentaone], the Max % inhibition is 98.03% and the IC50 was 1.2 nM.
On the same counts, the results for `COC[C@@H]1NC(=O)[C@H](C)N(Cc2ccc(Cl)cc2Oc2ccc(-c3cnc(CN(C)C)n3C)cc2)C(=O)C[C@@H](CC2CCCCC2)C(=O)N(C)[C@@H](C)CNC(=O)C[C@H](Cc2ccc(Cl)cc2)N(C)C1=O` [Compound 183, (2S,5S,8S,13S,16R)-1-(4-chloro-2-(4-(2-((dimethylamino)methyl)-1-methyl-1H-imidazol-5-yl)phenoxy)benzyl)-8-(4-chlorobenzyl)-16-(cyclohexylmethyl)-5-(methoxymethyl)-2,7,13,14-tetramethyl-1,4,7,11,14-pentaazacyclooctadecane-3,6,10,15,18-pentaone] are 81.31% and 11.2 nM.
For `COC[C@@H]1NC(=O)[C@H](C)N(Cc2ccc(Cl)cc2Oc2ccc(-c3cnc4n3CC[N+]3(CCCC3)C4)cc2)C(=O)C[C@@H](Cc2ccccc2)C(=O)N(C)[C@@H](C)CNC(=O)C[C@H](Cc2ccc(Cl)cc2)N(C)C1=O.Cl.[Cl-]` [Compound 249, 3-(4-(2-(((2S,5S,8S,13S,16R)-16-benzyl-8-(4-chlorobenzyl)-5-(methoxymethyl)-2,7,13,14-tetramethyl-3,6,10,15,18-pentaoxo-1,4,7,11,14-pentaazacyclooctadecan-1-yl)methyl)-5-chlorophenoxy)phenyl)-5,6-dihydro-8H-spiro[imidazo[1,2-a]pyrazine-7,1′-pyrrolidin]-7-ium chloride hydrochloride], in that order: 98.36% and 2.3 nM.
For `C=CC[C@@H]1CC(=O)N(Cc2ccc(Cl)cc2Oc2ccc(-c3cnc(CN(C)C)n3C)cc2)[C@@H](CCCN2CCOCC2)C(=O)N[C@@H](COC)C(=O)N(C)[C@@H](Cc2ccc(Cl)cc2)CC(=O)N[C@H]2CCCC[C@@H]2N(C)C1=O` [Compound 277, (4S,7S,10S,14R,16aS,20aS)-14-allyl-11-(4-chloro-2-(4-(2-((dimethylamino)methyl)-1-methyl-1H-imidazol-5-yl)phenoxy)benzyl)-4-(4-chlorobenzyl)-7-(methoxymethyl)-5,16-dimethyl-10-(3-morpholinopropyl)hexadecahydrobenzo[l][1,4,7,11,14]pentaazacyclooctadecine-2,6,9,12,15(3H)-pentaone], in that order: 83.22% and 2.5 nM.
With `COC[C@@H]1NC(=O)[C@H](C)N(Cc2ccc(Cl)cc2Oc2ccc(-c3cnc(CN4CCCC4)n3C)c(F)c2)C(=O)C[C@@H](Cc2ccccc2)C(=O)N(C)[C@@H](C)CNC(=O)C[C@H](Cc2ccc(Cl)cc2)N(C)C1=O` [Compound 72, (2S,5S,8S,13S,16R)-16-benzyl-1-(4-chloro-2-(3-fluoro-4-(1-methyl-2-(pyrrolidin-1-ylmethyl)-1H-imidazol-5-yl)phenoxy)benzyl)-8-(4-chlorobenzyl)-5-(methoxymethyl)-2,7,13,14-tetramethyl-1,4,7,11,14-pentaazacyclooctadecane-3,6,10,15,18-pentaone], the Max % inhibition stood at 92.57% and the concentration for half-maximal inhibition (IC50) was 0.5 nM.
